30 compounds from patent publication US10836725B2, “Modulators of the integrated stress pathway” (Calico Life Sciences LLC, priority 2016, dated 2020) can be followed below.

What is called EC50 is the concentration that produces a half-maximal response.

Structures are written as SMILES.

The assay deals with ATF4 luciferase reporter. In words: ATF4-Luc assay in HEK293T cells carrying the ATF4 luciferase reporter (in vitro model of VWMD). To be noted: Homo sapiens, HEK-293T, 1 μg/mL tunicamycin, 7 hours, luminescence (One Glo). It counts as cell-based, human. As to the method:
In order to test exemplary compounds of the invention in a cellular context, a stable VWMD cell line was first constructed. The ATF4 reporter was prepared by fusing the human full-length ATF4 5′-UTR (NCBI Accession No. BC022088.2) in front of the firefly luciferase (FLuc) coding sequence lacking the initiator methionine as described in Sidrauski et al (eLife 2013). The construct was used to produce recombinant retroviruses using standard methods and the resulting viral supernatant was used to transduce HEK293T cells, which were then subsequently selected with puromycin to generate a stable cell line.
HEK293T cells carrying the ATF4 luciferase reporter were plated on polylysine coated 384-well plates (Greiner Bio-one) at 30,000 cells per well. Cells were treated the next day with 1 μg/mL tunicamycin and 200 nM of a compound of Formula (I) for 7 hours. Luminescence was measured using One Glo (Promega) as specified by the manufacturer. Cells were maintained in DMEM with L-glutamine supplemented with 10% heat-inactivated FBS (Gibco) and Antibiotic-Antimycotic solution (Gibco).
Table 2 below summarizes the EC50 data obtained using the ATF4-Luc assay for exemplary compounds of the invention.
Background: A reporter such as luciferase makes a cellular process visible.
As for `CCCc1cc(CNC(=O)C23CC(NC(=O)COc4ccc(Cl)c(F)c4)(C2)C3)on1` [Compound 247, 3-[2-(4-chloro-3-fluorophenoxy)acetamido]-N-[(3-propyl-1,2-oxazol-5-yl)methyl]bicyclo[1.1.1]pentane-1-carboxamide], the EC50 was > 2000 nM.
For `Cc1cnc(CNC(=O)C23CCC(NC(=O)COc4ccc(Cl)c(F)c4)(CC2)CC3O)cn1` (stereo not drawn) [Compound 119, 4-[2-(4-chloro-3-fluorophenoxy)acetamido]-2-hydroxy-N-[(5-methylpyrazin-2-yl)methyl]bicyclo[2.2.2]octane-1-carboxamide] the value was 1000 to 2000 nM; for `O=C(COc1ccc(Cl)c(F)c1)NC12CC(C(=O)NCc3c(Cl)cccc3Cl)(C1)C2` [Compound 163, 3-[2-(4-chloro-3-fluorophenoxy)acetamido]-N-[(2,6-dichlorophenyl)methyl]bicyclo[1.1.1]pentane-1-carboxamide], > 2000 nM.
Next, `Cc1ccncc1CNC(=O)C12CC(NC(=O)COc3ccc(Cl)c(F)c3)(C1)C2` [Compound 165, 3-[2-(4-chloro-3-fluorophenoxy)acetamido]-N-[(4-methylpyridin-3-yl)methyl]bicyclo[1.1.1]pentane-1-carboxamide]: > 2000 nM; `O=C(COc1ccc(Cl)c(F)c1)NC12CCC(C(=O)NCc3ccccn3)(CC1)C(O)C2` (stereo not drawn) [Compound 139]: 1000 to 2000 nM; `O=C(COc1ccc(Cl)c(F)c1)NC12CCC(C(=O)NCc3cc(C(F)(F)F)ccn3)(CC1)C(O)C2` (stereo not drawn) [Compound 120, 4-[2-(4-chloro-3-fluorophenoxy)acetamido]-2-hydroxy-N-{[4-(trifluoromethyl)pyridin-2-yl]methyl}bicyclo[2.2.2]octane-1-carboxamide]: < 250 nM.
For `O=C(COc1ccc(Cl)c(F)c1)NC12CC(C(=O)NCc3c(F)cc(Cl)cc3F)(C1)C2` [Compound 181, N-[(4-chloro-2,6-difluorophenyl)methyl]-3-[2-(4-chloro-3-fluorophenoxy)acetamido]bicyclo[1.1.1]pentane-1-carboxamide] the value was > 2000 nM.
Take `O=C(COc1ccc(Cl)c(F)c1)NC12CC(C(=O)NCc3ccc(C(F)(F)F)cn3)(C1)C2` [Compound 118, 3-[2-(4-chloro-3-fluorophenoxy)acetamido]-N-{[5-(trifluoromethyl)pyridin-2-yl]methyl}bicyclo[1.1.1]pentane-1-carboxamide]: the EC50 was < 250 nM.
`Cc1ccc(CNC(=O)C23CC(NC(=O)COc4ccc(Cl)c(F)c4)(C2)C3)c(C)n1` [Compound 251, 3-[2-(4-chloro-3-fluorophenoxy)acetamido]-N-[(2,6-dimethylpyridin-3-yl)methyl]bicyclo[1.1.1]pentane-1-carboxamide]: the EC50 was > 2000 nM.
For `O=C(COc1ccc(Cl)c(F)c1)NC12CC(C(=O)NCc3cccc(Cl)c3)(C1)C2` [Compound 219, 3-[2-(4-chloro-3-fluorophenoxy)acetamido]-N-[(3-chlorophenyl)methyl]bicyclo[1.1.1]pentane-1-carboxamide] the value was > 2000 nM.
Consider `N#Cc1ccc(CNC(=O)C23CC(NC(=O)COc4ccc(Cl)c(F)c4)(C2)C3)cn1` [Compound 226, 3-[2-(4-chloro-3-fluorophenoxy)acetamido]-N-[(6-cyanopyridin-3-yl)methyl]bicyclo[1.1.1]pentane-1-carboxamide], for which the EC50 was > 2000 nM.
Consider `Cc1ccc(CNC(=O)C23CC(NC(=O)COc4ccc(Cl)c(F)c4)(C2)C3)nc1` [Compound 168, 3-[2-(4-chloro-3-fluorophenoxy)acetamido]-N-[(5-methylpyridin-2-yl)methyl]bicyclo[1.1.1]pentane-1-carboxamide], for which the EC50 was in the range of 1000 to 2000 nM.
For `CC(C)Cc1cc(CNC(=O)C23CC(NC(=O)COc4ccc(Cl)c(F)c4)(C2)C3)on1` [Compound 212, 3-[2-(4-chloro-3-fluorophenoxy)acetamido]-N-{[3-(2-methylpropyl)-1,2-oxazol-5-yl]methyl}bicyclo[1.1.1]pentane-1-carboxamide], the EC50 is > 2000 nM.
Take `O=C(COc1ccc(Cl)c(F)c1)NC12CC(C(=O)NCc3ccc(Cl)c(F)c3)(C1)C2` [Compound 193, 3-[2-(4-chloro-3-fluorophenoxy)acetamido]-N-[(4-chloro-3-fluorophenyl)methyl]bicyclo[1.1.1]pentane-1-carboxamide]: the concentration for a half-maximal effect (EC50) lay in the range of 250 to 500 nM.
`Cc1ccnc(CNC(=O)C23CCC(NC(=O)COc4ccc(Cl)c(F)c4)(CC2)CC3O)c1` (stereo not drawn) [Compound 143, 4-[2-(4-chloro-3-fluorophenoxy)acetamido]-2-hydroxy-N-[(4-methylpyridin-2-yl)methyl]bicyclo[2.2.2]octane-1-carboxamide]: the EC50 was < 250 nM.
For `O=C(COc1ccc(Cl)c(F)c1)NC12CCC(C(=O)NCc3cccc(F)c3)(CC1)C(O)C2` (stereo not drawn) [Compound 129, 4-[2-(4-chloro-3-fluorophenoxy)acetamido]-N-[(3-fluorophenyl)methyl]-2-hydroxybicyclo[2.2.2]octane-1-carboxamide] the value was 250 to 500 nM; for `O=C(COc1ccc(Cl)c(F)c1)NC12CC(C(=O)NCCc3ccccn3)(C1)C2` [Compound 153, 3-[2-(4-chloro-3-fluorophenoxy)acetamido]-N-[2-(pyridin-2-yl)ethyl]bicyclo[1.1.1]pentane-1-carboxamide], > 2000 nM; for `O=C(COc1ccc(Cl)c(Cl)c1)NC12CC(C(=O)NCc3ccc(OC(F)F)cn3)(C1)C2` [Compound 148, 3-[2-(3,4-dichlorophenoxy)acetamido]-N-{[5-(difluoromethoxy)pyridin-2-yl]methyl}bicyclo[1.1.1]pentane-1-carboxamide], < 250 nM.
For `O=C(COc1ccc(Cl)c(F)c1)NC12CCC(C(=O)NCc3ccc(C(F)(F)F)cn3)(CC1)[C@H](O)C2` (single isomer, unassigned) [Compound 113] the value was < 250 nM; for `Cc1cc(CNC(=O)C23CC(NC(=O)COc4ccc(Cl)c(Cl)c4)(C2)C3)n(C)n1` [Compound 154, 3-[2-(3,4-dichlorophenoxy)acetamido]-N-[(1,3-dimethyl-1H-pyrazol-5-yl)methyl]bicyclo[1.1.1]pentane-1-carboxamide], > 2000 nM; for `Cc1ccc(OCCNC(=O)C23CC(NC(=O)COc4ccc(Cl)c(F)c4)(C2)C3)cc1C` [Compound 158, 3-[2-(4-chloro-3-fluorophenoxy)acetamido]-N-[2-(3,4-dimethylphenoxy)ethyl]bicyclo[1.1.1]pentane-1-carboxamide], < 250 nM.
For `O=C(COc1ccc(Cl)cc1)NC12CC(C(=O)NCCOc3ccc(F)cc3)(C1)C2` [Compound 102, 3-[2-(4-chlorophenoxy)acetamido]-N-[2-(4-fluorophenoxy)ethyl]bicyclo[1.1.1]-pentane-1-carboxamide] the value was 250 to 500 nM; for `O=C(COc1ccc(Cl)c(F)c1)NC12CC(C(=O)NCc3cccnn3)(C1)C2` [Compound 205, 3-[2-(4-chloro-3-fluorophenoxy)acetamido]-N-[(pyridazin-3-yl)methyl]bicyclo[1.1.1]pentane-1-carboxamide], > 2000 nM.
On to `O=C(COc1ccc(Cl)c(F)c1)NC12CC(C(=O)NCc3ccc(C(F)(F)F)cc3)(C1)C2` [Compound 156, 3-[2-(4-chloro-3-fluorophenoxy)acetamido]-N-{[4-(trifluoromethyl)phenyl]methyl}bicyclo[1.1.1]pentane-1-carboxamide], for which the EC50 was < 250 nM.
Next, `COc1cccc(CNC(=O)C23CC(NC(=O)COc4ccc(Cl)c(F)c4)(C2)C3)n1` [Compound 232, 3-[2-(4-chloro-3-fluorophenoxy)acetamido]-N-[(6-methoxypyridin-2-yl]methyl]bicyclo[1.1.1]pentane-1-carboxamide]: > 2000 nM; `CC(NC(=O)C12CCC(NC(=O)COc3ccc(Cl)c(F)c3)(CC1)CC2O)c1cccnc1` (stereo not drawn) [Compound 140, 4-[2-(4-chloro-3-fluorophenoxy)acetamido]-2-hydroxy-N-[1-(pyridin-3-yl)ethyl]bicyclo[2.2.2]octane-1-carboxamide]: > 2000 nM.
For `Cc1cc(CNC(=O)C23CC(NC(=O)COc4ccc(Cl)c(F)c4)(C2)C3)n(C)n1` [Compound 151, 3-[2-(4-chloro-3-fluorophenoxy)acetamido]-N-[(1,3-dimethyl-1H-pyrazol-5-yl)methyl]bicyclo[1.1.1]pentane-1-carboxamide], the EC50 is > 2000 nM.
For `O=C(COc1ccc(Cl)c(F)c1)NC12CC(C(=O)NCc3ccccc3)(C1)C2` [Compound 162, N-benzyl-3-[2-(4-chloro-3-fluorophenoxy)acetamido]bicyclo[1.1.1]pentane-1-carboxamide] the value was > 2000 nM; for `O=C(COc1ccc(Cl)c(F)c1)NC12CC(C(=O)NCc3cccc(OC(F)(F)F)c3)(C1)C2` [Compound 161, 3-[2-(4-chloro-3-fluorophenoxy)acetamido]-N-{[3-(trifluoromethoxy)phenyl]methyl}bicyclo[1.1.1]pentane-1-carboxamide], > 2000 nM.
Next, `CN(C)c1ccc(CNC(=O)C23CCC(NC(=O)COc4ccc(Cl)c(F)c4)(CC2)CC3O)cc1` (stereo not drawn) [Compound 134, 4-[2-(4-chloro-3-fluorophenoxy)acetamido]-N-{[4-(dimethylamino)phenyl]methyl}-2-hydroxybicyclo[2.2.2]octane-1-carboxamide]: < 250 nM.
